Publication PMC5557014 (Biochemical pharmacology, 2017)
Like-named read-outs stand apart in the source and are kept apart here.

What was measured:
HIV-1 RT L100I = conditions: Poly rA.dT [^3H]dTTP
HIV-1 RT M184V + E138K = assay: Mutant HIV-1 RT assay M184V + E138K; assay type: biochemical; conditions: Poly rI.dC [^3H]dCTP
HIV-1 RT M184V = assay: Mutant HIV-1 RT assay M184V; assay type: biochemical; conditions: Poly rI.dC [^3H]dCTP
[1] = biological target: T1, cellular DNA polymerase α (Homo sapiens, UniProt P09884); assay: Cellular DNA polymerase α assay; assay type: biochemical; conditions: read-out: IC50 α DNA pol; calf thymus DNA, [^3H]dGTP
T1 sequence (P09884 1-1462): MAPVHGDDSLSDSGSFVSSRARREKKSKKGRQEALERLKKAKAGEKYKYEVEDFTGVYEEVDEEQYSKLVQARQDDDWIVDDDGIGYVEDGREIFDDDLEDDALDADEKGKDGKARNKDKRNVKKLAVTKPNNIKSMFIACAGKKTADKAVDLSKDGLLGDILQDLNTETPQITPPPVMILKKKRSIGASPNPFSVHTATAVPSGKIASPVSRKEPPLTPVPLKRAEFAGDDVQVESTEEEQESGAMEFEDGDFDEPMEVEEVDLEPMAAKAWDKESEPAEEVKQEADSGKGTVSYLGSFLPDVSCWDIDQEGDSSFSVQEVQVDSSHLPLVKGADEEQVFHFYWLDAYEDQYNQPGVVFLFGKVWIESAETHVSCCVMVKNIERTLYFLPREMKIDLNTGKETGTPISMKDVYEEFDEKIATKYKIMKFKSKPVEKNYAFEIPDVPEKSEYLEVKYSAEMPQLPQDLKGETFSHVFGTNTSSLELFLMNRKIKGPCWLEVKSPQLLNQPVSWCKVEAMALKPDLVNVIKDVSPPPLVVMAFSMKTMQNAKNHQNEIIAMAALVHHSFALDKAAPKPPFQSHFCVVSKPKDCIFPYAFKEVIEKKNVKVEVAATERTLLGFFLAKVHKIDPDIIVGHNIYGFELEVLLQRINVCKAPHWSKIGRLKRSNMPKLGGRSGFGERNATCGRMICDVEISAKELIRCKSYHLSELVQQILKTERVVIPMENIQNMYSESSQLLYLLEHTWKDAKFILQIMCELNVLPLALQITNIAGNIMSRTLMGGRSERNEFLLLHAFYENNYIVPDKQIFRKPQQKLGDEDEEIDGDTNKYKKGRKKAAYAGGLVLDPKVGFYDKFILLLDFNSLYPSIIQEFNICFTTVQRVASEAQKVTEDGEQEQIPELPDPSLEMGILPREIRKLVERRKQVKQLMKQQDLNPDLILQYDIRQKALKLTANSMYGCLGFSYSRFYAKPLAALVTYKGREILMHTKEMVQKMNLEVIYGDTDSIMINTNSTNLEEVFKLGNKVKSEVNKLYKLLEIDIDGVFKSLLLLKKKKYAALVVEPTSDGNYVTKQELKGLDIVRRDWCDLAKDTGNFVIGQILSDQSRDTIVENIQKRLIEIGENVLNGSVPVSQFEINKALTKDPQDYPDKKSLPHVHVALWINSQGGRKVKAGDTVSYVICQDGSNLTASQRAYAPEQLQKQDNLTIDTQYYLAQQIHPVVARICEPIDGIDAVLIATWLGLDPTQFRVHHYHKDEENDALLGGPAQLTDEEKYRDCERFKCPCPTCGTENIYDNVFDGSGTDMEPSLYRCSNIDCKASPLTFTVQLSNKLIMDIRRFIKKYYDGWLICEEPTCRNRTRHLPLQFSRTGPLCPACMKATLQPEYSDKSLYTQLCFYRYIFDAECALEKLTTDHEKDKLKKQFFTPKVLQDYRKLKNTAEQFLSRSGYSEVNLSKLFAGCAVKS

HIV-1 RT Q151M = assay: Mutant HIV-1 RT assay Q151M; assay type: biochemical
HIV-1 RT K70Q = assay: Mutant HIV-1 RT assay K70Q; assay type: biochemical; conditions: Poly rI.dC [^3H]dCTP
HIV-1 RT V75I = assay: Mutant HIV-1 RT assay V75I; assay type: biochemical; conditions: Poly rA.dT [^3H]dTTP
HIV-1 RT M184V + Y115F = assay: Mutant HIV-1 RT assay M184V + Y115F; assay type: biochemical; conditions: Poly rI.dC [^3H]dCTP
HIV-1 RT = HIV-1 RT (Human immunodeficiency virus type 1 group M subtype B, UniProt P04585); assay: HIV-1 RT assay with homopolymeric template/primers; assay type: biochemical; conditions: read-out: IC50 HIV-1 RT
HIV-1 RT K70E = assay: Mutant HIV-1 RT assay K70E; assay type: biochemical
HIV-1 RT M184I = assay: Mutant HIV-1 RT assay M184I; assay type: biochemical; conditions: Poly rI.dC [^3H]dCTP
HIV-1 RT M184I + E138K = assay: Mutant HIV-1 RT assay M184I + E138K; assay type: biochemical
HIV-1 RT F61A = assay: Mutant HIV-1 RT assay F61A; assay type: biochemical
HSV-1 DNA polymerase = HSV-1 DNA polymerase (Human herpesvirus 1, UniProt P04293); assay: HSV-1 DNA polymerase enzyme assay; assay type: biochemical; conditions: read-out: IC50 HSV-1 DNA pol, calf thymus DNA
HSV-1 DNA polymerase, sequence (P04293 whole entry): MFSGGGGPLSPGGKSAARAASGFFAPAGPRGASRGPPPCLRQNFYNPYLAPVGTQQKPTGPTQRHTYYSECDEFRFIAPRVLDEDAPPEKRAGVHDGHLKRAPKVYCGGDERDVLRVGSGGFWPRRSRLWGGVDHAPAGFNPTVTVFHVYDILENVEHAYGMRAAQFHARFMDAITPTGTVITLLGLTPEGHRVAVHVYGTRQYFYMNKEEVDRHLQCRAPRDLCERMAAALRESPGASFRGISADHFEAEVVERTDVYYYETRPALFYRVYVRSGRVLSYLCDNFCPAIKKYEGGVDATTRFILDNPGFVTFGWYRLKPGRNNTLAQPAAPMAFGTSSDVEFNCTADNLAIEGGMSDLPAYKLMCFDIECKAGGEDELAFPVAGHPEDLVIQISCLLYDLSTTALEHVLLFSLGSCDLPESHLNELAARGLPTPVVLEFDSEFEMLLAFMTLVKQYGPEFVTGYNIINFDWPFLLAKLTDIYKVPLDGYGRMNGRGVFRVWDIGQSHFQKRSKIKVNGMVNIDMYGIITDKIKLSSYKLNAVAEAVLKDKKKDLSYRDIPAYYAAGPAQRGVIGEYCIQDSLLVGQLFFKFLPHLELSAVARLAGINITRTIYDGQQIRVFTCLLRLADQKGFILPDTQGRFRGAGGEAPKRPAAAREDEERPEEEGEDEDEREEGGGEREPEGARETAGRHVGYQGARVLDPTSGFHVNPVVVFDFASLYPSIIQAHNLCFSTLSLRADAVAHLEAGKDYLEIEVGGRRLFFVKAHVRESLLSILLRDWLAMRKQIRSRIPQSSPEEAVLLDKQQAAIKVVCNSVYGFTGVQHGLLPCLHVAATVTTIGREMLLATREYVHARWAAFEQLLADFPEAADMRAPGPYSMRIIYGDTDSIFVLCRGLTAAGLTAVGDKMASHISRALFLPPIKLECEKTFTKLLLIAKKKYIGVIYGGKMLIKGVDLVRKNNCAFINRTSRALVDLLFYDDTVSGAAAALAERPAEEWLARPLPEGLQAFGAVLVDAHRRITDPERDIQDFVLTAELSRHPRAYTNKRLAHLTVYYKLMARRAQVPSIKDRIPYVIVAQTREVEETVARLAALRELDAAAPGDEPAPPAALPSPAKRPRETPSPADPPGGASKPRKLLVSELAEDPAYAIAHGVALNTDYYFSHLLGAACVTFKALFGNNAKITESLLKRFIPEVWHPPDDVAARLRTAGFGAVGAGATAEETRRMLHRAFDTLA

HIV-1 RT E138K = assay: Mutant HIV-1 RT assay E138K; assay type: biochemical
HCMV DNA polymerase = HCMV DNA polymerase (Human cytomegalovirus, UniProt P08546); assay: HCMV DNA polymerase enzyme assay; assay type: biochemical; conditions: read-out: IC50 HCMV DNA pol, calf thymus DNA
HCMV DNA polymerase, sequence (P08546 whole entry): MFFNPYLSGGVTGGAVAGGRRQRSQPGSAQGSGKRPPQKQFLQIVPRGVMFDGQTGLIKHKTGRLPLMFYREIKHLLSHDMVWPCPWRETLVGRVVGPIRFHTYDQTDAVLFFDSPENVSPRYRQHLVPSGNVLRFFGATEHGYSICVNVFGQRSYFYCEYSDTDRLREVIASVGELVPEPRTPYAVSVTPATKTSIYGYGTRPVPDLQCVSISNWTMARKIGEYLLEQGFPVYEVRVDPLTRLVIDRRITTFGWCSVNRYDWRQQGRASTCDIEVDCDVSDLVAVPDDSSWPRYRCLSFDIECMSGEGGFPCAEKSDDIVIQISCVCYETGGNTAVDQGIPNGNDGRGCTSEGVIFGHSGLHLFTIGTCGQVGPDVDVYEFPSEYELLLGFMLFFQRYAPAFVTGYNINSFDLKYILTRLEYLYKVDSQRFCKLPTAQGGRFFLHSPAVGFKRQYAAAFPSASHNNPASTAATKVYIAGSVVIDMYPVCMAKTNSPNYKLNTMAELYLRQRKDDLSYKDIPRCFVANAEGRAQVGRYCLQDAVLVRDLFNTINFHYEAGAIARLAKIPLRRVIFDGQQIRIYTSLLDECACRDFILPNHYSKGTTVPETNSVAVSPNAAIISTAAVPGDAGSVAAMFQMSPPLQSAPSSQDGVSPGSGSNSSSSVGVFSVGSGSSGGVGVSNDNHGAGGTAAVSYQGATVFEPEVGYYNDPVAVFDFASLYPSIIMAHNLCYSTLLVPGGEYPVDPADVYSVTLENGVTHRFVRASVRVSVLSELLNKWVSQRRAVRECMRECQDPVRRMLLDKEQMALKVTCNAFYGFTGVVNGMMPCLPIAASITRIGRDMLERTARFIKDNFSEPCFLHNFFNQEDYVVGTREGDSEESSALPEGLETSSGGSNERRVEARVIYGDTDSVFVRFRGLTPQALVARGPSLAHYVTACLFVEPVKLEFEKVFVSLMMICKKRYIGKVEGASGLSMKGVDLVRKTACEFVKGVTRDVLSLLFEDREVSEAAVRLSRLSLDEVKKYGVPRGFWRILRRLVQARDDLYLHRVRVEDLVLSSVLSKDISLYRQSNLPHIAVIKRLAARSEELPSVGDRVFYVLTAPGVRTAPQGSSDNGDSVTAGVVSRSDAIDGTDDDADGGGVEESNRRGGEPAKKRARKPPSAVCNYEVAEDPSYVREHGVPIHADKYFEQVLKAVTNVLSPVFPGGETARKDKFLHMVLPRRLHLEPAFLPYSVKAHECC

[2] = biological target: cellular DNA polymerase β (Homo sapiens, UniProt P06746); assay: Cellular DNA polymerase β assay; assay type: biochemical; conditions: read-out: IC50 β DNA pol; calf thymus DNA, [^3H]dGTP
HIV-1 RT K70R = assay: Mutant HIV-1 RT assay K70R; assay type: biochemical; conditions: Poly rA.dT [^3H]dTTP
HIV-1 RT K65R = assay: Mutant HIV-1 RT assay K65R; assay type: biochemical

With `Cn1c2ccccc2c2c1cc(C#N)c(=O)n2-c1ccc([N+](=O)[O-])cc1` [INDOPY] the “Fold-resistance compared to wild-type” value (HIV-1 RT L100I) was 3.9 fold, the “Fold-resistance compared to wild-type” value (HIV-1 RT M184V + E138K) was 1.0 fold and the “Fold-resistance compared to wild-type” value (HIV-1 RT M184V) was > 6.7 fold. For the same molecule, the IC50 [1] was > 100 µM, the “Fold-resistance compared to wild-type” value (HIV-1 RT Q151M; Poly rA.dT [^3H]dTTP) was 1.6 fold and the “Fold-resistance compared to wild-type” value (HIV-1 RT Q151M; Poly rI.dC [^3H]dCTP) was 0.2 fold. The “Fold-resistance compared to wild-type” value (HIV-1 RT K70Q) was 0.7 fold, the “Fold-resistance compared to wild-type” value (HIV-1 RT V75I) was 1.0 fold and the “Fold-resistance compared to wild-type” value (HIV-1 RT M184V + Y115F) was ≥ 6.7 fold. For the same molecule, the “Fold-resistance compared to wild-type” value (HIV-1 RT V106A; Poly rA.dT [^3H]dTTP) was 1.0 fold, the “Fold-resistance compared to wild-type” value (HIV-1 RT V106A; Poly rI.dC [^3H]dCTP) was 0.4 fold and the IC50 (HIV-1 RT; poly rA.dT, [^3H]dTTP) was 0.26 ± 0.07 µM. The IC50 (HIV-1 RT; poly rC.dG, [^3H]dGTP) was > 200 µM, the “Fold-resistance compared to wild-type” value (HIV-1 RT K70E; Poly rA.dT [^3H]dTTP) was 1.5 fold and the “Fold-resistance compared to wild-type” value (HIV-1 RT K70E; Poly rI.dC [^3H]dCTP) was 0.6 fold. The “Fold-resistance compared to wild-type” value (HIV-1 RT M184I) was ≥ 6.7 fold, the “Fold-resistance compared to wild-type” value (HIV-1 RT M184I + E138K; Poly rA.dT [^3H]dTTP) was 1.1 fold and the “Fold-resistance compared to wild-type” value (HIV-1 RT M184I + E138K; Poly rI.dC [^3H]dCTP) was 0.6 fold. For the same molecule, the “Fold-resistance compared to wild-type” value (HIV-1 RT Y181C; Poly rA.dT [^3H]dTTP) was 1.3 fold, the “Fold-resistance compared to wild-type” value (HIV-1 RT Y181C; Poly rI.dC [^3H]dCTP) was ≥ 6.7 fold and the “Fold-resistance compared to wild-type” value (HIV-1 RT F61A; Poly rA.dT [^3H]dTTP) was 2.2 fold. For the same molecule, the “Fold-resistance compared to wild-type” value (HIV-1 RT F61A; Poly rI.dC [^3H]dCTP) was 1.9 fold, the IC50 (HSV-1 DNA polymerase; [^3H]dGTP) was > 100 µM and the IC50 (HSV-1 DNA polymerase; [^3H]dTTP) was > 100 µM. For the same molecule, the “Fold-resistance compared to wild-type” value (HIV-1 RT K103N; Poly rA.dT [^3H]dTTP) was 0.6 fold, the “Fold-resistance compared to wild-type” value (HIV-1 RT K103N; Poly rI.dC [^3H]dCTP) was 1.1 fold and the “Fold-resistance compared to wild-type” value (HIV-1 RT E138K; Poly rA.dT [^3H]dTTP) was 0.7 fold. The “Fold-resistance compared to wild-type” value (HIV-1 RT E138K; Poly rI.dC [^3H]dCTP) was 1.0 fold, the IC50 (HCMV DNA polymerase; [^3H]dGTP) was > 100 µM and the IC50 (HCMV DNA polymerase; [^3H]dTTP) was > 100 µM. For the same molecule, the IC50 [2] was > 100 µM, the “Fold-resistance compared to wild-type” value (HIV-1 RT K70R) was 0.6 fold and the “Fold-resistance compared to wild-type” value (HIV-1 RT K65R; Poly rA.dT [^3H]dTTP) was 1.0 fold. The “Fold-resistance compared to wild-type” value (HIV-1 RT K65R; Poly rI.dC [^3H]dCTP) was 1.3 fold.
